Patent publication US9657081B2, “Inhibiting peptides derived from triggering receptor expressed on myeloid cells-1 (TREM-1) TREM-like transcript 1 (TLT-1) for treatment of cardiovascular diseases” (INSERM (Institut National de la Sante et de la Recherche …, priority 2013, dated 2017)

test system: TREM-1; experiment: Rat model of sepsis-induced cardiac dysfunction, intrinsic cardiac function by Millar catheter; format: in vivo; design: dpdtmax/Ved / PRSW: unit not given beside the values; FEVG / ESPVR: unit not given here; conditions: not given
Text: TREM-1- and TLT-1-derived peptides administration during rat model of sepsis-induced cardiac dysfunction is associated with an increase of intrinsic cardiac function measured by Millar catheter (FEVG, ESPVR, dpdtmax/Ved, PRSW).
(§1) Rats were anaesthetized with isoflurane and a 2 F high-fidelity micro-manometer catheter (SPR-407, Millar Institute, Houston, Tex., USA) was inserted into the LV via the right carotid artery. The Millar catheter was connected to a Harvard Data Acquisition System interfaced with a PC with the AcqKnowledge III software (ACQ 3.2).

Row | Substance | ESPVR | FEVG | PRSW | dpdtmax/Ved
1 | LQVEDSGLYQCV (listed as Homo sapiens) [TREM1-LP12] | 2.8 ± 0.2 | 72 ± 9.4 | 139 ± 6 | 158 ± 18
2 | LQVEDS (listed as Homo sapiens) [TREM1-LP6-1] | 2.5 ± 0.3 | 76 ± 5.9 | 145 ± 6 | 150 ± 20
3 | LQEEDAGEYGCMVDGAR (listed as Homo sapiens) [TLT1-LR17] | 2.5 ± 0.3 | 75.6 ± 7.2 | 145 ± 6 | 150 ± 12
4 | ELMEGGQECADY (synthetic peptide scramble) [TLT-1-LR12scr, reference compound] | 1.6 ± 0.3 | 39.9 ± 4.9 | 88 ± 8 | 61 ± 12
5 | GEYGCM (listed as Homo sapiens) [TLT-1LR6-3] | 2.2 ± 0.2 | 78 ± 8.7 | 149 ± 6 | 157 ± 10
6 | GLYQCV (listed as Homo sapiens) [TREM1-LP6-3] | 2.9 ± 0.4 | 78.6 ± 7.4 | 139 ± 8 | 163 ± 10
7 | EDSGLY (listed as Homo sapiens) [TREM1-LP6-2] | 2.7 ± 0.1 | 79.4 ± 9.9 | 144 ± 6 | 155 ± 15
8 | LQVEDSGLYQCVIYQPP (listed as Homo sapiens) [TREM1-LP17] | 2.7 ± 0.3 | 75.9 ± 8.9 | 150 + 8 | 156 ± 11
9 | EDAGEY (listed as Homo sapiens) [TLT1-LR6-2] | 2.3 ± 0.2 | 75 ± 5.9 | 139 ± 10 | 155 ± 12
10 | LQEEDA (listed as Homo sapiens) [TLT1-LR6-1] | 2.9 ± 0.3 | 79.6 ± 7.4 | 142 ± 8 | 160 ± 15

test system: TREM-1; experiment: Rat model of myocardial ischemia-reperfusion, cardiac function by conductance catheter; format: in vivo; design: PRSW: unit not given beside the values; Emax / ESPVR: unit not given here; conditions: six weeks after ischemia-reperfusion; 3 mg/kg once a day for 5 days
Procedure: Adult male Wistar rats were subjected to myocardial ischemia-reperfusion and were randomly grouped (n=10) to receive repeated TREM-1- and TLT-1-derived peptides (3 mg/kg in 0.2 mL NaCl 0.9% once a day for 5 days) or scrambled-LR12 (3 mg/kg in 0.2 mL NaCl 0.9% once a day for 5 days). Six weeks after myocardial injury, cardiac function was investigated under anaesthesia by using a conductance catheter. Emax, ESPVR, and PRSW were higher in animals treated with TREM-1- and TLT-1-derived peptides than in control rats. All p<0.02 [controls versus LR12]).
Animals received same surgery than in permanent ischemia, but with reperfusion of ischemic area by release of the LAD ligation after 60 minutes of ischemia. The same protocol as described above was then applied.
as §1
To investigate the role of TREM-1- and TLT-1-derived peptides in a more relevant model of MI, we performed a transient coronary artery ligation (ischemia-reperfusion model: IR) in rats. After randomisation, animals were then imaged under anaesthesia (micro-TEP) and administered with TREM-1- and TLT-1-derived peptides (3 mg/kg daily for 5 days i.p.) or LR12-scrambled peptide. Imaging was then repeated at 6 weeks before we studied cardiac function by using a conductance catheter (Millar).

Row | Substance | ESPVR | Emax | PRSW
11 | LQVEDSGLYQCV (listed as Homo sapiens) [TREM1-LP12] | 2.3 ± 0.4 | 4.5 ± 0.4 | 99 ± 4
12 | LQVEDS (listed as Homo sapiens) [TREM1-LP6-1] | 2 ± 0.3 | 5.5 ± 0.4 | 105 ± 6
13 | LQEEDAGEYGCMVDGAR (listed as Homo sapiens) [TLT1-LR17] | 2 ± 0.2 | 5.1 ± 0.6 | 105 ± 6
14 | ELMEGGQECADY (synthetic peptide scramble) [TLT-1-LR12scr, reference compound] | 1.1 ± 0.3 | 2.7 ± 0.3 | 65 ± 8
15 | GEYGCM (listed as Homo sapiens) [TLT-1LR6-3] | 1.7 ± 0.3 | 5.2 ± 0.4 | 109 ± 6
16 | GLYQCV (listed as Homo sapiens) [TREM1-LP6-3] | 2.3 ± 0.4 | 5.8 ± 0.5 | 99 ± 8
17 | EDSGLY (listed as Homo sapiens) [TREM1-LP6-2] | 2.2 ± 0.1 | 6 ± 0.6 | 104 ± 5
18 | LQVEDSGLYQCVIYQPP (listed as Homo sapiens) [TREM1-LP17] | 2.2 ± 0.3 | 5.9 ± 0.8 | 110 ± 5
19 | EDAGEY (listed as Homo sapiens) [TLT1-LR6-2] | 1.8 ± 0.1 | 6.5 ± 0.9 | 99 ± 8
20 | LQEEDA (listed as Homo sapiens) [TLT1-LR6-1] | 2.4 ± 0.4 | 4.5 ± 0.6 | 102 ± 6

biological target: T1, TREM-1 (Mus musculus, UniProt Q9JKE2); experiment: Mouse model of myocardial infarction, survival; format: in vivo; conditions: 100 μg daily for 5 days i.p.
T1 construct: endogenous in cells; host or cells: living mice (C57BL, Balb/c, ApoE-/-), in vivo
T1 sequence (Q9JKE2 21-230): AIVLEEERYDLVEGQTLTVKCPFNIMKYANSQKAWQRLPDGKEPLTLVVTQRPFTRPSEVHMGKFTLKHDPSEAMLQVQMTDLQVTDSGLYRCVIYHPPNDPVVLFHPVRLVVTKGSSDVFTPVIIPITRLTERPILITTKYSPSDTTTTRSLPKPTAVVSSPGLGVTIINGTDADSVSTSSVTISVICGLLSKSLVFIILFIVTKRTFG
Procedure: Adult male Balb/c mice (20-23 g) were subjected to myocardial ischemia and were randomly grouped (n=10-15 per group) to receive repeated TREM-1- and TLT-1-derived peptides (100 μg in 0.2 mL NaCl 0.9% once a day for 5 days), scrambled-LR12 (100 μg in 0.2 mL NaCl 0.9% once a day for 5 days), or 10 μg anti-TREM-1 mAb in 0.2 mL NaCl 0.9% i.p. injections. Survival was monitored over 1 wk and analyzed by Log Rank test. (There were no deaths after the 5th day). Data are representative of at least 15 different experiments.
All procedures were performed on mice male C57BL/C ranging in age from 6-8 weeks. Mice were anesthetized by an intraperitoneal injection of xylazine (60 mg/kg) and fixed in supine position. The trachea was intubated and ventilated (the tidal volume was 200 μl/25 g and the respiratory rate was 120 breaths/min). After a left thoracotomy, the left coronary artery was identified and ligated with an 8-0 prolene surgical suture at 1.0 mm distal from tip of the left auricle. LAD occlusion was confirmed by a change in myocardial color from red to white in the ischemia area (Left ventricle). The chest was closed and the skin was sutured with 6-0 silk. […]
Mice were monitored after surgery for mortality. Mice were randomized to receive or not peptides (daily ip injection for 5 days, 5 mg/kg) and monitored for survival. […]

Row | Substance | mice died
21 | ELMEGGQECADY (synthetic peptide scramble) [TLT-1-LR12scr, reference compound] | 40%
